The values below come from patent US20020058299A1, “Mycologic genera specific selective agar and method of manufacture” (priority 2000, published 2002).

This assay relates to aggressive fungi. The experiment in a line: Empirical trials of Minimum Inhibitory Concentration levels that suppress aggressive fungi without restricting Stachybotrys. Format: cell-based. The following applies: added to PDA base media. The method, then: In order to be successful in culturing Stachybotrys from environmental samples, Aspergillus flavus, Aspergillus fumigatus, Aspergillus vervicolor, Cladosporium species, Penicillium species, in addition to other fungi and bacteria, need to be suppressed. While conceptually simple, the difficulty is to determine which base media, in combination with which one or more antibiotics, at what concentrations, incubated at what temperature regimes, for how long, would achieve inhibition of competitors—without restricting Stachybotrys. Extensive experimental trials empirically determined the Minimum Inhibitory Concentration (MIC) levels of various compounds that would effectively suppress aggressive fungi without restricting Stachybotrys development. Through this empirical effort there has been developed a proprietary formula for a selective agar (PDA+) based on commercially available base media and additional ingredients for the specific recovery of Stachybotrys chartarum.
(2) Miconazole (antifungal compound added to base media at 1.6 micrograms (μg) per milliliter (ml) of PDA+, the optimum concentration within the functional range of 1.0 to 3.2 μg/ml).

On to `Clc1ccc(COC(Cn2ccnc2)c2ccc(Cl)cc2Cl)c(Cl)c1` (stereo not shown) [Miconazole], for which the “optimum concentration in PDA+” value was 1.6 micrograms (μg) per milliliter (ml).
